Source: patent publication EP1137632B1, “THIOUREA INHIBITORS OF HERPES VIRUSES” (Wyeth, priority 1998, dated 2000)
Converted amounts (≈) assume the structure as drawn. Read-outs that look alike come from different tables or passages of the source.

How the values were obtained:
[1] = test system: HCMV recombinant mutant virus; test: microbe, parasite or virus in culture; format: cell-based, human cytomegalovirus; conditions: for IC50: Human betaherpesvirus 5, read-out: IC50 (ug/ml) HCMV
Procedure, shortened: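 Human foreskin fibroblasts were infected with a recombinant HCMV carrying a beta-glucuronidase gene under a viral promoter, in the presence of compound. At 96 h post-infection, lysate beta-glucuronidase activity was read colorimetrically or fluorometrically as a replication marker. IC50 came from the compound dose range.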

HSV-1 = test: HSV antiviral (ELISA) assay in Vero cells; format: cell-based, herpes simplex virus type 1; conditions: for IC50: read-out: IC50 (ug/ml) HSV
Procedure, shortened: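 Vero cells in DMEM/2% FBS treated with compound 30 min before HSV-1 infection (MOI 0.006), ~24 h at 37 °C. Viral glycoprotein D measured by cell ELISA with β-galactosidase-linked secondary and fluorogenic methylumbelliferyl galactoside (ex 365/em 450 nm); IC50 versus no-compound fluorescence.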

VZV strain Ellen = test: VZV antiviral (ELISA) assay in human foreskin fibroblast cells; format: cell-based, varicella-zoster virus; conditions: for IC50: read-out: IC50 (ug/ml) VZV
Procedure, shortened: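 HFF cells infected with VZV Ellen (MOI <0.1) overnight, then plated at 3.5x10^4 cells/well with compound in DMEM + 2% FBS for three days at 37°C, 5% CO2. Viral glycoprotein II quantified by ELISA with β-galactosidase-linked secondary and 4-methylumbelliferyl-galactoside fluorescence (365/450 nm); IC50 versus no-compound fluorescence.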

[2] = Human alphaherpesvirus 1, HSV-1 in Vero cells
[3] = Human alphaherpesvirus 3, VZV strain Ellen in HFF cells

With CC(NC(=S)Nc1ccc(NC(=O)c2ccccc2F)c(OCc2ccccc2)c1)c1ccc(F)cc1 (stereo not shown) [Example 1051, N-(2-Benzyloxy-4-{3-[1-(4-fluoro-phenyl)-ethyl]-thioureido}-phenyl)-2-fluoro-benzamide] the IC50 [1] was > 10 µg/mL, the IC50 (HSV-1; [2]) was > 10 µg/mL and the IC50 (VZV strain Ellen; [3]) was 0.7 µg/mL (≈ 1.35 µM).

For CCCCOc1cc(NC(=S)NC(C)c2ccc(F)cc2)ccc1NC(=O)c1ccccc1F (stereo not shown) [Example 1055, N-(2-Butoxy-4-{3-[1-(4-fluoro-phenyl)-ethyl]-thioureido}-phenyl)-2-fluoro-benzamide], the IC50 [1] was > 10 µg/mL, the IC50 (HSV-1; [2]) was > 10 µg/mL and the IC50 (VZV strain Ellen; [3]) was 0.32 µg/mL (≈ 0.662 µM).

For CCCCOc1cc(NC(=S)NC(C)c2ccc(C#N)cc2)ccc1NC(=O)c1ccccc1F (stereo not shown) [Example 1056, N-(2-Butoxy-4-{3-[1-(4-cyano-phenyl)-ethyl]-thioureido}-phenyl)-2-fluoro-benzamide], the IC50 [1] was 2.5 µg/mL (≈ 5.1 µM), the IC50 (HSV-1; [2]) was > 10 µg/mL and the IC50 (VZV strain Ellen; [3]) was 0.4 µg/mL (≈ 0.815 µM).

With CCOc1cc(NC(=S)NC(C)c2ccc(F)cc2)ccc1NC(=O)c1ccccc1F (stereo not shown) [Example 1060, N-(2-Ethoxy-4-{3-[1-(4-fluoro-phenyl)-ethyl]-thioureido}-phenyl)-2-fluoro-benzamide] the IC50 [1] was > 10 µg/mL, the IC50 (HSV-1; [2]) was > 10 µg/mL and the IC50 (VZV strain Ellen; [3]) was 0.26 µg/mL (≈ 0.571 µM).

CCOc1cc(NC(=S)NC(C)c2ccc(C#N)cc2)ccc1NC(=O)c1ccccc1F (stereo not shown) [Example 1061, N-(4-{3-[1-(4-Cyano-phenyl)-ethyl]-thioureido}-2-ethoxy-phenyl)-2-fluoro-benzamide] was tested, and the IC50 [1] was 7.6 µg/mL (≈ 16.4 µM), the IC50 (HSV-1; [2]) was > 10 µg/mL and the IC50 (VZV strain Ellen; [3]) was 0.64 µg/mL (≈ 1.38 µM).

CC(NC(=S)Nc1ccc(NC(=O)c2ccccc2F)c(OCC#N)c1)c1ccc(F)cc1 (stereo not shown) [Example 1062, 2-Fluoro-N-[4-{3-[1-(4-fluoro-phenyl)-ethyl]-thioureido}-2-(2-nitrilo-ethoxy)-phenyl]-benzamide] was tested, and the IC50 [1] was 6 µg/mL (≈ 12.9 µM), the IC50 (HSV-1; [2]) was > 10 µg/mL and the IC50 (VZV strain Ellen; [3]) was 0.33 µg/mL (≈ 0.707 µM).

CC(NC(=S)Nc1ccc(NC(=O)c2ccccc2F)c(OCC#N)c1)c1ccc(C#N)cc1 (stereo not shown) [Example 1063, N-[4-{3-[1-(4-Cyano-phenyl)-ethyl]-thioureido}-2-(2-nitrilo-ethoxy)-phenyl]-2-fluoro-benzamide] was tested, and the IC50 [1] was 3.6 µg/mL (≈ 7.6 µM), the IC50 (HSV-1; [2]) was > 10 µg/mL and the IC50 (VZV strain Ellen; [3]) was 0.64 µg/mL (≈ 1.35 µM).

Compound COc1cc(NC(=S)NC(C)c2ccc(F)cc2)ccc1NC(=O)c1ccccc1F (stereo not shown) [Example 1064, 2-Fluoro-N-(4-{3-[1-(4-fluoro-phenyl)-ethyl]-thioureido}-2-methoxy-phenyl)-benzamide] has an IC50 [1] of 4.5 µg/mL (≈ 10.2 µM), an IC50 (HSV-1; [2]) of 3.9 µg/mL (≈ 8.83 µM) and an IC50 (VZV strain Ellen; [3]) of 0.04 µg/mL (≈ 0.0906 µM).

CC(NC(=S)Nc1ccc(NC(=O)c2ccccc2F)c(-c2ccccc2)c1)c1ccc(F)cc1 (stereo not shown) [Example 1065, 2-Fluoro-N-(5-{3-[1-(4-fluoro-phenyl)-ethyl)-thioureido}-biphenyl-2-yl)-benzamide] was tested, and the IC50 [1] was 8.1 µg/mL (≈ 16.6 µM), the IC50 (HSV-1; Human alphaherpesvirus 1, Vero) was 4.9 µg/mL (≈ 10 µM) and the IC50 (VZV strain Ellen; Human alphaherpesvirus 3, HFF) was 0.33 µg/mL (≈ 0.677 µM).

In the case of CC(NC(=S)Nc1ccc(NC(=O)c2nccc3ccccc23)c(C(F)(F)F)c1)c1ccc(F)cc1 (stereo not shown) [Example 1066, Isoquinoline-1-carboxylic acid (4-{3-[1-(4-fluoro-phenyl)-ethyl]-thioureido}-2-trifluoromethyl-phenyl)-amide], the IC50 [1] is reported as 1.8 µg/mL (≈ 3.51 µM), the IC50 (HSV-1; [2]) is reported as 1.9 µg/mL (≈ 3.71 µM) and the IC50 (VZV strain Ellen; [3]) is reported as 0.02 µg/mL (≈ 0.039 µM).

Compound CC(NC(=S)Nc1ccc(NC(=O)c2cc3ccccc3o2)c(C(F)(F)F)c1)c1ccc(F)cc1 (stereo not shown) [Example 1067, Benzofuran-2-carboxylic acid (4-{3-[1-(4-fluoro-phenyl)-ethyl]-thioureido}-2-trifluoromethyl-phenyl)-amide] has an IC50 [1] of 3.3 µg/mL (≈ 6.58 µM), an IC50 (HSV-1; [2]) of 3.8 µg/mL (≈ 7.58 µM) and an IC50 (VZV strain Ellen; [3]) of 0.26 µg/mL (≈ 0.518 µM).

In the case of CC(NC(=S)Nc1ccc(NC(=O)c2cc3ccccc3cn2)c(C(F)(F)F)c1)c1ccc(F)cc1 (stereo not shown) [Example 1068, Isoquinoline-3-carboxylic acid (4-{3-[1-(4-fluoro-phenyl)-ethyl]-thioureido}-2-trifluoromethyl-phenyl)-amide], the IC50 [1] is reported as > 10 µg/mL, the IC50 (HSV-1; [2]) is reported as > 10 µg/mL and the IC50 (VZV strain Ellen; [3]) is reported as 0.04 µg/mL (≈ 0.078 µM).

In the case of CC(NC(=S)Nc1ccc(NC(=O)c2nccc3ccccc23)c(C#N)c1)c1ccc(F)cc1 (stereo not shown) [Example 1069, Isoquinoline-1-carboxylic acid (2-cyano-4-{3-[1-(4-fluoro-phenyl)-ethyl]-thioureido}-phenyl)-amide], the IC50 [1] is reported as 4 µg/mL (≈ 8.52 µM), the IC50 (HSV-1; [2]) is reported as > 10 µg/mL and the IC50 (VZV strain Ellen; [3]) is reported as 0.019 µg/mL (≈ 0.0405 µM).

CC(NC(=S)Nc1ccc(NC(=O)c2cc3ccccc3o2)c(C#N)c1)c1ccc(F)cc1 (stereo not shown) [Example 1070, Benzofuran-2-carboxylic acid (2-cyano-4-{3-[1-(4-fluoro-phenyl)-ethyl]-thioureido}-phenyl)-amide] was tested, and the IC50 [1] was 2 µg/mL (≈ 4.36 µM), the IC50 (HSV-1; [2]) was 4.1 µg/mL (≈ 8.94 µM) and the IC50 (VZV strain Ellen; [3]) was 0.2 µg/mL (≈ 0.436 µM).

With CC(NC(=S)Nc1ccc(NC(=O)c2cc3ccccc3cn2)c(C#N)c1)c1ccc(F)cc1 (stereo not shown) [Example 1071, Isoquinoline-3-carboxylic acid (2-cyano-4-{3-[1-(4-fluoro-phenyl)-ethyl]-thioureido}-phenyl)-amide] the IC50 [1] was > 10 µg/mL, the IC50 (HSV-1; [2]) was 9 µg/mL (≈ 19.2 µM) and the IC50 (VZV strain Ellen; [3]) was 0.03 µg/mL (≈ 0.0639 µM).

For Cc1cc(NC(=S)NC(C)c2ccc(F)cc2)ccc1NC(=O)c1nccc2ccccc12 (stereo not shown) [Example 1072, Isoquinoline-1-carboxylic acid (4-{3-[1-(4-fluoro-phenyl)-ethyl]-thioureido}-2-methyl-phenyl)-amide], the IC50 [1] was > 10 µg/mL, the IC50 (HSV-1; [2]) was > 10 µg/mL and the IC50 (VZV strain Ellen; [3]) was 0.027 µg/mL (≈ 0.0589 µM).

Cc1cc(NC(=S)NC(C)c2ccc(F)cc2)ccc1NC(=O)c1cc2ccccc2o1 (stereo not shown) [Example 1073, Benzofuran-2-carboxylic acid (4-{3-[1-(4-fluoro-phenyl)-ethyl]-thioureido}-2-methyl-phenyl)-amide] gave an IC50 [1] of 6.3 µg/mL (≈ 14.1 µM), an IC50 (HSV-1; [2]) of 4.6 µg/mL (≈ 10.3 µM) and an IC50 (VZV strain Ellen; [3]) of 0.47 µg/mL (≈ 1.05 µM).

For Cc1cc(NC(=S)NC(C)c2ccc(F)cc2)ccc1NC(=O)c1cc2ccccc2cn1 (stereo not shown) [Example 1074, Isoquinoline-3-carboxylic acid (4-{3-[1-(4-fluoro-phenyl)-ethyl]-thioureido}-2-methyl-phenyl)-amide], the IC50 [1] was 4 µg/mL (≈ 8.72 µM), the IC50 (HSV-1; [2]) was 5.8 µg/mL (≈ 12.6 µM) and the IC50 (VZV strain Ellen; [3]) was 0.07 µg/mL (≈ 0.153 µM).

In the case of “(5H,11H-Benzo[e]pyrrolo[1,2-a][1,4]diazepin-10-yl)-(2-chloro-4-imidazol-1-yl-phenyl)-methanone [Example 322]”, the “IC50 (ug/ml) HCMV” value ([1]; HCMV, the table does not say which HCMV assay) is reported as 7 µg/mL, the “IC50 (ug/ml) HSV” value (HSV-1; HSV-1 in Vero cells) is reported as 4 µg/mL and the “% inhibition 10 ug/ml VZV” value (VZV strain Ellen; 10 ug/ml) is reported as 108%. For the same compound, the “IC50 (ug/ml) VZV” value (VZV strain Ellen; VZV strain Ellen in HFF cells) was 8 µg/mL.
